According to PMC10820135, “Pharmacokinetic, Tissue Distribution, Metabolite, and Toxicity Evaluation of the Matrine Derivative, (6aS, 10S, 11aR, 11bR, 11cS)-10-Methylaminododecahydro-3a, 7a-Diaza-benzo (de) Anthracene-8-thione” (Molecules, 2024):
“Also recorded” adds a separate entry of the source. Like-named read-outs stand apart in the source and are kept apart here.

Key:
[1] = Tissue distribution of MASM in rats; format: in vivo, Sprague-Dawley rats; conditions: rat
Protocol: (§1) UHPLC analysis was performed using a Thermo Accela AS system, employing an ACQUITY UPLC®BEH C18 (Waters Corporation, Wexfords, Ireland) (1.7 µm, 2.1 × 100 mm) column and a binary solvent system consisting of water containing 0.1% formic acid as mobile phase A and acetonitrile as mobile phase B. For pharmacokinetic evaluation, the gradient elution was set as follows: 97% A from 0 to 2 min, 97–70% A from 2 to 3 min, 70–20% A from 3 to 3.5 min, 20% A from 3.5 to 3.6 min, 20–97% A from 3.6 to 3.7 min, and 97% A from 3.7 to 5 min. For the metabolic test, the gradient elution in full scan mode was set as follows: 97% A from 0 to 2 min, 97–70% A from 2 to 4 min, 70–20% A from 4 to 6 min, 20% A from 6 to 7 min, 20–97% A from 7 to 8 min, and 97% A from 8 to 10 min. The flow rate was 0.2 mL/min, with a temperature of 40 °C maintained and an injection volume of 5 μL. The QQQ-MS/MS analysis was conducted using a Thermo TSQ QUANTUM ACCESS MAX system equipped with an electrospray ionization (ESI) source. The spray voltages were set at 4.0 kV and 2.5 kV for positive and negative ion modes, respectively; capillary and vaporizer temperatures were 320 °C and 350 °C, respectively; sheath and aux gas pressures were 35 and 10 psi, respectively.
A total of 36 Sprague-Dawley rats (18 male and 18 female) were randomly and equally assigned to 6 groups, with 3 male and 3 female rats in each group. Among these groups, 3 groups were administrated MASM intragastrically at a dosage of 60 mg/kg, while the remaining 3 groups received intraperitoneal administration of MASM at a dosage of 80 mg/kg. The rats in each group were euthanized at three different time points: 1 h, 2 h, and 24 h after administration. Subsequently, various tissues, including the heart, liver, spleen, lung, kidney, stomach, muscle, and brain, were promptly collected and weighed. These tissues were then homogenized using acetonitrile at a ratio of 1:10 and stored at a temperature of −80 °C until further analysis. During the analysis of the tissue sample, the protein was precipitated following the tissues: acetonitrile with a ratio of 1:3 and a volume of 5μL of the resulting supernatant were injected. The UHPLC-QQQ-MS/MS analysis method that was developed, underwent a comprehensive validation process, and the concentration of MASM in each tissue was determined using linear regression equations. Bar graphs were generated by applying Prism 8.0 (GraphPad Software Inc., San Diego, CA, USA).

[2] = Acute toxicity of MASM in mice via intravenous administration; format: in vivo; conditions: ICR, mouse, in vivo, iv, mice, intravenous
Protocol: (§2) All mice were administered MASM intravenously. The body weight of each mouse was measured on days 7 and 14. On the 14th day, all mice were euthanized, and the heart, liver, spleen, lung, and kidney were collected and weighed immediately. Serum was collected from the eyeballs for further biochemical analysis, and a small portion of each tissue and organ was fixed in 4% […] solution for histopathological examination. Bar graphs were generated applying Prism 8.0 (GraphPad Software Inc., San Diego, CA, USA), and HE staining samples were captured using the Leica image system.

[3] = system: ICR mice; assay: as above; format: in vivo
Protocol: as §2

[4] = Metabolite profiling of MASM in rats by UHPLC-QQQ-MS/MS; format: in vivo, Sprague-Dawley rats; conditions: rat
Protocol: The identification of the in vivo metabolites of MASM was conducted using UHPLC-QQQ-MS/MS combined with standard references and deuterium-labeled MASM. The findings are presented in Table 2, while the proposed primary metabolic pathway of MASM in rats is depicted in Figure 4. To provide a comprehensive understanding of the metabolite identification process, three representative metabolites of MASM are presented, with their identification relying on primary and secondary mass spectrometry data, standard references, and deuterium-labeled MASM. The remaining metabolites are detailed in Supplementary File S4. For instance, the identification of the metabolite, M1, as a demethylation product of MASM was accomplished through the utilization of MS, MS/MS data, and the standard reference. […] Moreover, the identification of M1 as the demethylation metabolite of MASM was accomplished using the standard reference synthesized in our laboratory. […] Secondly, the metabolite, M2, of MASM was identified as the dehydrogenation product of MASM through the utilization of MS and MS/MS data. […] Consequently, M2 was identified as a dehydrogenation metabolite of M1. Thirdly, through the utilization of MS, MS/MS data, and deuterium-labeled MASM, the metabolite, M8, of MASM was determined to be a dehydrogenation product of MASM. […] The major MS/MS fragment ions of M8 were found at m/z 111.92, 178.77, 150.16, and 135.85, which aligned with the characteristic cleavage pattern of matrine. Additionally, our lab synthesized deuterium-labeled MASM to further support our proposed structure. […] Consequently, M8 was identified as a dehydrogenation metabolite of MASM. The EIC, MS/MS spectrum of M8 and deuterium-labeled MASM are all depicted in Figure 5C.
as §1
Seventy Sprague-Dawley rats were fasted overnight before dosing, with free access to water. Subsequently, the rats were randomly and equally divided into 7 groups: the control groups received 3 different routes of administration: intravenous, intraperitoneal, and intragastric (NS, saline 1 mL/100 g); MASM intraperitoneal group (A, i.p. 80 mg/kg), MASM intragastrical group (B, i.g. 60 mg/kg), MASM intravenous group (C, i.v. 15 mg/kg), and DMASM intragastrical group (D, i.g. 60 mg/kg). It is important to note that the recommended clinical dose of matrine injection is 0.15 g, which is equivalent to a dosage of 15 mg/kg in rats. MASM was administered via tail vein injection at a dosage of 1 mL/100 g for intravenous dosing, while for intraperitoneal dosing, MASM was injected at the lower-right side of the abdomen of rats. […]

CNC1CC(=S)N2CC3CCCN4CCCC(C34)C2C1 [MASM, (6aS, 10S, 11aR, 11bR, 11cS)-10-methylaminododecahydro-3a, 7a-diaza-benzo (de) anthracene-8-thione]
tissues with concentration surpassing other organs at 1 h ([1]; following the initial hour): liver, kidney, and intestine | time at which Cmax in liver tissue was achieved ([1]; i.g. 60 mg/kg and i.p. 80 mg/kg): ≤ 1 h | tissue with higher concentration than other organs at 2 h and 24 h ([1]; i.g. 60 mg/kg or i.p. 80 mg/kg): spleen and intestine | tissues of main distribution / higher accumulation ([1]; i.g. 60 mg/kg or i.p. 80 mg/kg, 1, 2, 24 h): primarily distributed in the liver, kidney, and spleen tissues | detection in tissues ([1]; heart, liver, spleen, lung, kidney, brain, muscle, intestine, stomach): detected in all rat tissues including the brain; also recorded: detected in various tissues at 1, 2, and 24 h after administration | LD50 at 14 day ([2]; 14-day observation, read-out: LD50): 94.2 mg/kg | LD50 at 14 day ([2]; read-out: LD50, 95% confidence interval): 70.8 to 129 mg/kg | viscera indices (visceral weight to body weight) of heart, liver, spleen, lung, kidney ([3]; day 14, vs control group, all dosages): no significant alterations; also recorded: remained unchanged | heart histopathology (HE staining) ([3]; high (240 mg/kg) and medium-high (144 mg/kg) dose groups): noticeable increase in myocardial fiber density | spleen histopathology (HE staining) ([3]; high and medium-high dose groups vs control): slight increase in the count of splenic sinusoids and lymph nodes | liver histopathology (HE staining) ([3]; high and medium-high dose groups, accompanied by portal area bleeding): noteworthy escalation in the number of hepatocytes | kidney histopathology (HE staining) ([3]; high-dose group (240 mg/kg)): proliferation and dense arrangement, accompanied by evident bleeding | lung histopathology (HE staining), alveolar cavity ([3]; high-dose group (240 mg/kg)): widened, accompanied by hemorrhaging | lung histopathology (HE staining), alveolar wall ([3]; medium-dose to low-dose groups): slight thinning | kidney histopathology, renal interstitial blood vessels ([3]; medium-high and medium-dose groups): proliferation and dilation | ALP activity in plasma vs control ([3]; mice, day 14, p > 0.05): no statistically significant differences | ALT activity in plasma vs control ([3]; mice, day 14, p > 0.05): no statistically significant differences | AST activity in plasma vs control ([3]; mice, day 14, p > 0.05): no statistically significant differences | albumin (ALB) level in plasma vs control ([3]; mice, day 14, p > 0.05): no statistically significant differences | creatinine (CREA) level in plasma vs control ([3]; mice, day 14, p > 0.05): statistically indistinguishable from those of the control group; also recorded: no statistically significant differences | total protein (TP) level in plasma vs control ([3]; mice, day 14, p > 0.05): no statistically significant differences | urea (UREA) level in plasma vs control ([3]; mice, day 14, p > 0.05): statistically indistinguishable from those of the control group; also recorded: no statistically significant differences | symptoms upon death ([3]; mice, intravenous): convulsions, increased salivary secretion, urination, and defecation | overall histopathological changes of primary organs ([3]; particularly low (31.1 mg/kg), medium-low (51.84 mg/kg), medium (86.4 mg/kg) dose groups): no significant alterations; also recorded: no substantial pathological alterations; also recorded: did not reveal any significant pathological changes | number of in vivo metabolites identified [4]: 10 | primary metabolic reactions (phase I) [4]: oxidation, reduction, and hydroxylation
